Source: PubChem BioAssay (NCI)
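Each compound was tested at five concentrations against cells in 96-well plates for 48 hours. GI50 is the concentration that inhibits growth by half. TGI: concentration producing complete growth inhibition.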

Columns and labels:
Assay in all cases: inhibition of tumour cell growth, NCI panel, 48 h
SW-620 colon = test system: SW-620 colon
HCC-2998 colon = test system: HCC-2998 colon
HCT-116 colon = test system: HCT-116 colon
A498 renal = test system: A498 renal
PC-3 prostate = test system: PC-3 prostate
NCI-H226 lung = test system: NCI-H226 lung
IGROV1 ovarian = test system: IGROV1 ovarian
SK-OV-3 ovarian = test system: SK-OV-3 ovarian
HCT-15 colon = test system: HCT-15 colon
SK-MEL-28 melanoma = test system: SK-MEL-28 melanoma
SK-MEL-5 melanoma = test system: SK-MEL-5 melanoma
U251 CNS = test system: U251 CNS
A549 NSCLC = test system: A549 NSCLC
LOX IMVI melanoma = test system: LOX IMVI melanoma
SF-295 CNS = test system: SF-295 CNS
DU-145 prostate = test system: DU-145 prostate
HS 578T breast = test system: HS 578T breast
KM12 colon = test system: KM12 colon
CAKI-1 renal = test system: CAKI-1 renal
HL-60(TB) leukemia = test system: HL-60(TB) leukemia
T-47D breast = test system: T-47D breast
RPMI-8226 leukemia = test system: RPMI-8226 leukemia
HT29 colon = test system: HT29 colon
EKVX NSCLC = test system: EKVX NSCLC
ACHN renal = test system: ACHN renal
SNB-19 CNS = test system: SNB-19 CNS
NCI-H23 lung = test system: NCI-H23 lung

C[C@H]1[C@@H](CC(=O)N[C@@H](Cc2coc3ccccc23)B(O)O)O[C@@H]2OC3(C)CC[C@H]4[C@H](C)CC[C@@H]1[C@@]24OO3 showed a GI50 (SW-620 colon) of 362 nM, a TGI (SW-620 colon) of 10200 nM and a GI50 (HCC-2998 colon) of 1230 nM. The TGI (HCC-2998 colon) was 2300 nM, the GI50 (HCT-116 colon) was 783 nM and the TGI (HCT-116 colon) was 2290 nM. The GI50 (A498 renal) was 2280 nM, the TGI (A498 renal) was 9800 nM and the GI50 (PC-3 prostate) was 1190 nM. It also gave a TGI (PC-3 prostate) of 18800 nM, a GI50 (NCI-H226 lung) of 876 nM and a TGI (NCI-H226 lung) of 2140 nM. For the same molecule, the GI50 (IGROV1 ovarian) was 2260 nM, the TGI (IGROV1 ovarian) was 9300 nM and the GI50 (SK-OV-3 ovarian) was 3550 nM. For the same molecule, the TGI (SK-OV-3 ovarian) was 13400 nM, the GI50 (HCT-15 colon) was 363 nM and the TGI (HCT-15 colon) was 4290 nM. It also gave a GI50 (SK-MEL-28 melanoma) of 1200 nM, a TGI (SK-MEL-28 melanoma) of 3630 nM and a GI50 (SK-MEL-5 melanoma) of 1130 nM. It also gave a TGI (SK-MEL-5 melanoma) of 2220 nM, a GI50 (U251 CNS) of 2140 nM and a TGI (U251 CNS) of 10500 nM. For the same molecule, the GI50 (A549 NSCLC) was 2460 nM, the TGI (A549 NSCLC) was > 71000 nM and the GI50 (LOX IMVI melanoma) was 892 nM. The TGI (LOX IMVI melanoma) was 1990 nM, the GI50 (SF-295 CNS) was 1980 nM and the TGI (SF-295 CNS) was 7690 nM. It also gave a GI50 (DU-145 prostate) of 5470 nM, a TGI (DU-145 prostate) of 62100 nM and a GI50 (HS 578T breast) of 1900 nM. For the same molecule, the TGI (HS 578T breast) was 12000 nM, the GI50 (KM12 colon) was 1980 nM and the TGI (KM12 colon) was 6320 nM. For the same molecule, the GI50 (CAKI-1 renal) was 3630 nM, the TGI (CAKI-1 renal) was 21900 nM and the GI50 (HL-60(TB) leukemia) was 177 nM. The TGI (HL-60(TB) leukemia) was 2040 nM, the GI50 (T-47D breast) was 749 nM and the TGI (T-47D breast) was 3030 nM. For the same molecule, the GI50 (RPMI-8226 leukemia) was 267 nM, the TGI (RPMI-8226 leukemia) was 1420 nM and the GI50 (HT29 colon) was 1550 nM. It also gave a TGI (HT29 colon) of 4860 nM, a GI50 (EKVX NSCLC) of 3140 nM and a TGI (EKVX NSCLC) of 22200 nM. The GI50 (ACHN renal) was 2010 nM, the TGI (ACHN renal) was > 71000 nM and the GI50 (SNB-19 CNS) was 3430 nM. For the same molecule, the TGI (SNB-19 CNS) was > 71000 nM, the GI50 (NCI-H23 lung) was 1620 nM and the TGI (NCI-H23 lung) was 7440 nM.
